# Columns and labels:
# [1] = molecular target: T1, Solute carrier family 15 member 1 (Oryctolagus cuniculus, UniProt P36836); assay: Substrate activity at rabbit PepT1 expressed in Xenopus laevis oocytes assessed as drug transportation across membrane under holding potential at -30 mV at 2 mM by two electrode voltage-clamp method; type: ADME, cell-based; settings: 2000 µM
# T1 sequence (P36836 whole entry): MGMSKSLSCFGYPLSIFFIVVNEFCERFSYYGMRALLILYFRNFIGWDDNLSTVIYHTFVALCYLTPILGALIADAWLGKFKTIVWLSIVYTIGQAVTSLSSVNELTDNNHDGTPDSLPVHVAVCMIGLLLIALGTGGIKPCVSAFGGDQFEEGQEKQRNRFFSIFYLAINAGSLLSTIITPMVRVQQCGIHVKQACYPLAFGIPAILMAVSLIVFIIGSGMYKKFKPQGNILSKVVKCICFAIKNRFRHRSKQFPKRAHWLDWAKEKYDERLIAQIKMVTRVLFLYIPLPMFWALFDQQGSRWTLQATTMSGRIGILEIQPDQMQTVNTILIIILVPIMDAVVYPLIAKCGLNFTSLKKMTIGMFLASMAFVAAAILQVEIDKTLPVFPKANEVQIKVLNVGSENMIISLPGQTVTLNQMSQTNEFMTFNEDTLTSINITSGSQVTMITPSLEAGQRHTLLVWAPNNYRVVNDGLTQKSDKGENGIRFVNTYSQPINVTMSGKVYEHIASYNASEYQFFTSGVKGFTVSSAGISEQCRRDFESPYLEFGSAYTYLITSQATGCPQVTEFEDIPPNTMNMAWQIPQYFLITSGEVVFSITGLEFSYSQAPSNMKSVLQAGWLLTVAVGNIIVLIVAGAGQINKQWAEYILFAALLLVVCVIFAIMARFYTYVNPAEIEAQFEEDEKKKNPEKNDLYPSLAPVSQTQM
# [2] = molecular target: T1, Solute carrier family 15 member 1; assay: Inhibition of [3H]-D-Phe-L-Gln uptake at rabbit PepT1 expressed in Xenopus laevis oocytes at pH 5.5 measured after 1 hr by scintillation counting method; type: cell-based
smiles,measurement,setting,value
C/C=C/C[C@H](C)[C@@H](OC(=O)CNC(=O)C[C@@H](NC(=S)[C@H](C)N)C(=O)O)[C@@H]1C(=O)N[C@@H](CC)C(=O)N(C)CC(=O)N(C)[C@H](CC(C)C)C(=O)N[C@H](C(C)C)C(=O)N(C)[C@H](CC(C)C)C(=O)N[C@H](C)C(=O)N[C@H](C)C(=O)N(C)[C@H](CC(C)C)C(=O)N(C)[C@H](CC(C)C)C(=O)N(C)[C@H](C(C)C)C(=O)N1C,Activity,[1],322 nA
same,Ki,[2],1110 µM
